The text below walks through data of PMC11491004, “CHF6523 data suggest that the phosphoinositide 3-kinase delta isoform is not a suitable target for the management of COPD” (Respiratory Research, 2024).

Data set [1] relates to proteins in sputum. Nature of the data set: Tandem mass tag mass spectrometry proteomics in sputum. Format: in vivo, human. The conditions noted are these: FDR < 0.05, mixed effect modelling. As to the method:
Sputum samples were weighed and solubilised with sodium dodecyl sulphate and dithiothreitol, and were incubated for 10 min at 95°C. First, quantification was performed by the Bradford Assay, with 50 μg of each sample digested with Trypsin following the S-trap micro protocol; 25 μg of each sample was dried, and reconstituted with TMT10plex (Thermo Scientific) following the manufacturer’s instructions. The 98 samples were divided into eleven TMT10plexes groups; 10 μg of each sample were combined, taking into account the peptide quantification, and after combining samples were desalted.
Samples were analysed with a Thermo Scientific Dionex Ultimate 3000 nano RSLC coupled to a Orbitrap Fusion Lumos mass spectrometer (Thermo Scientific) fitted with nanoESI source. Peptides were separated on a EasySpray (75 µm x 500 mm, 2 μm, 100Å) (Thermo Scientific) heated to 40°C at 300 nL/min. The mass spectrometer was operated in data-dependent acquisition (DDA) mode. […] For the MS3 analyses for TMT quantification, multiple fragment ions from the previous MS2 scan (SPS ions) were co- selected and fragmented by HCD.
Database searches were performed with Proteome Discoverer v2.4 software (Thermo Scientific) using Sequest HT search engine and UniProt Homo Sapiens (2023) and contaminants. […] TMT reporter ions intensities were used for protein quantification. […]

The conditions of data set [2]: Parts 1 and 2, single and multiple ascending dose; some mild inhalation-related cough; cited from earlier work.
Data set [3] in a line: Safety and tolerability: adverse events. The conditions noted are these: safety set N = 42.
Procedure: Safety and tolerability were evaluated throughout the study in terms of the occurrence of adverse events, blood chemistry, haematology and urinalysis, vital signs, and 12-lead electrocardiograms. […] Throughout the study, patients were permitted to use salbutamol as rescue medication, but not within 6 h prior to any spirometry assessment – any rescue medication intake was also captured in the daily diary.
The safety set, used in the analysis of all safety variables, was all randomised patients who received at least one dose of study drug. […] Given the cross-over design, the inclusion of patients in the analysis sets was defined on a per-period basis.
Data set [4] deals with target biomarkers in plasma. The data set is described as follows: Target biomarkers in plasma. The class given is in vivo, human. The note with it: p < 0.05. The method, then:
All assessment timings were based on the morning dose. Pre-dose on Days 1 and 28 of each treatment period, blood samples were taken for pharmacokinetic analyses, followed by forced oscillation (including slow vital capacity manoeuvres for inspiratory capacity [IC] and vital capacity [VC]), spirometry (forced expiratory volume in 1 s [FEV1] and forced vital capacity [FVC]), and the COPD Assessment Test (CAT). Blood samples were also taken up to 12 h post-dose on Days 1 and 28 for pharmacokinetic analyses, with blood samples for biomarker assessment pre-dose on Day 1 and 2 h post-dose on Day 28, and spirometry pre-dose on Days 20 and 24. […]
Fold-change from baseline in cell counts, target biomarkers in sputum and blood, and PIP3 were log-transformed and analysed using an analysis of covariance (ANCOVA) model, with treatment, patient, and period as fixed effects, and baseline value as covariate. Changes from baseline in spirometry, forced oscillation and CAT endpoints were analysed using a similar ANCOVA model, but without log transformation. Rescue medication data were analysed using an analysis of variance model, including treatment, period and patient as fixed effects. […]

Take `C[C@@H](c1oc(=O)c2ccccc2c1-c1cccc(CN2CCN(C)CC2)c1)n1nc(-c2cncc(O)c2)c2c(N)ncnc21` [CHF6523]: in data set [1], the “Proteins significantly modulated by treatment, of the 413 evaluated” value is “only BPI fold-containing family B member 1 (BPIFB1) was significantly modulated by treatment”. For the same compound, the “Safety profile in healthy volunteers” value in data set [2] was “acceptable safety profile”. Besides, in data set [3], the “Adverse events leading to death” value is 0 Patients (%) and the “Adverse events: COVID-19” value is given as 5 (11.9%) Patients (%). Besides, the “CHF6523–placebo differences in the target biomarkers in plasma” value in data set [4] is recorded as “no statistically significant”.
